Converted amounts (≈) assume the structure as drawn. Like-named read-outs stand apart in the source and are kept apart here.
Legend:
physchem = conditions: 37 °C, thermodynamic from solid
[1] = pH 6.5
[2] = Hygroscopicity by DVS at 25° C.; format: physicochemical; conditions: for water uptake: DVS 25° C.
Method: Hygroscopicity of Form A and Form N was investigated by DVS at 25° C. […] Form A converted to Form K after the DVS test. Form K is a metastable hydrate. It reverted back to Form A after exposure to ambient condition.
Hygroscopicity of the free base Pattern A* and the urea cocrystal Form P were evaluated by DVS at 25° C.

[3] = Variable temperature XRPD (VT-XRPD) experiments; format: physicochemical
Method: To investigate form conversion behavior, variable temperature XRPD experiments were conducted for hydrate Pattern A, hydrate Pattern C, hydrate Pattern F and hetero-solvate Pattern L.
Based on DSC and TGA results, variable temperature XRPD was conducted for Pattern A, at different temperatures, including 25° C., 110° C. and 25° C.
Based on DSC and TGA results, variable temperature XRPD was conducted for Pattern B, at different temperatures, including 25° C., 80° C., 130° C. and 25° C. The sample after heating-cooling was placed at 25° C./75% RH condition for 1 day and investigated by XRPD.
Based on DSC and TGA results, variable temperature XRPD was conducted for Pattern C, at different temperatures, including 25° C., 110° C. and 25° C.
Based on DSC and TGA results, variable temperature XRPD was conducted for Pattern F at different temperatures, including 25° C., 110° C. and 25° C. The sample after heating-cooling was placed at 25° C./75% RH condition for 1 day and investigated by XRPD.
Based on DSC and TGA results, variable temperature XRPD was conducted for Pattern L, at different temperatures, including 25° C., 100° C., 140° C., 180° C. and 25° C. The sample after heating-cooling was placed at 25° C./92% RH condition for 24 h and investigated by XRPD.

[4] = Bulk stability study (1 week stress conditions; drying); conditions: one week
[5] = Solubility study in aqueous media at 37° C.
Photostability study = conditions: 1.2 million lux-hrs at 25° C., open container
[6] = Variable humidity XRPD (VH-XRPD) experiments; format: physicochemical
Method: Based on DVS results, variable humidity XRPD was conducted for Pattern A at different humidity conditions, including 40%, 70%, 90%, 70%, 40%, 20%, 0%, 40% RH conditions.
Based on DVS results, variable humidity XRPD was conducted for Pattern N, at different humidity conditions, including 40%, 70%, 90%, 70%, 40%, 20%, 0%, 40% RH conditions.

[7] = pH 4.5, 50 mM acetate buffer, 24 h

With COc1cc(-c2cn(C)c(=O)c(C)c2C)cc(OC)c1CN1CC[C@H](N2CCN(c3ccc(N[C@H]4CCC(=O)NC4=O)cc3F)CC2)C(F)(F)C1 [Form P] as the compound, how does the Solubility (physchem; pH 1, simulated gastric fluid) read?
Its Solubility is greater than 2000 µg/mL.

What about the Solubility (physchem; pH 1.8, simulated gastric fluid) of the same compound?
Its Solubility is greater than 2000 µg/mL.

What about the Solubility (physchem; pH 4.5, aqueous buffer) of the same compound?
Its Solubility is 100 to 300 µg/mL (≈ 141 to 422 µM).

And the Solubility (physchem; pH 5, fessif)?
The Solubility was 100 to 300 µg/mL (≈ 141 to 422 µM).

What about the Solubility [1] of the same compound?
Its Solubility is “low solubility (close to LOQ)”.

And the water uptake ([2]; 95% RH)?
Its water uptake is 3.1%.

And the water uptake ([2]; below 90% RH)?
The water uptake was 1.6%.

With COc1cc(-c2cn(C)c(=O)c(C)c2C)cc(OC)c1CN1CC[C@H](N2CCN(c3ccc(N[C@H]4CCC(=O)NC4=O)cc3F)CC2)C(F)(F)C1 [Pattern A*] as the compound, how does the XRPD ([3]; 25° C. (start)) read?
Its XRPD is “Pattern A”.

And the XRPD ([3]; 25° C./50% RH hold 2 h)?
Its XRPD is “Pattern A”.

What about the XRPD ([3]; Cool to 25° C.) of the same compound?
The XRPD was “Metastable Pattern J”.

What about the XRPD ([3]; Heat to 110° C.) of the same compound?
The XRPD was “Metastable Pattern J”.

What about the chemical stability ([4]; 25° C./92% RH open, 40° C./75% RH open, 60° C. tight container) of the same compound?
The chemical stability was “good chemical stability”.

And the physical stability ([4]; 25° C./92% RH, open container)?
Its physical stability is “agglomeration”.

What about the physical stability ([4]; 40° C./75% RH, open container) of the same compound?
The physical stability was “physically stable”.

And the physical stability ([4]; 60° C., tight container)?
Its physical stability is “crystallinity decrease”.

And the Solubility ([5]; FaSSIF-v1 (pH 6.5))?
The Solubility was “low solubility (close to LOQ)”.

What about the pH ([5]; FaSSIF-v1, pH 6.5, 2 h) of the same compound?
The pH was “pH: 6.5”.

And the Solubility ([5]; FaSSIF-v1, pH 6.5, 2 h, target 10 mg/5 mL, LOQ: 50 μg/mL)?
Its Solubility is “<LOQ”.

What about the “XRPD of residual solids” value ([5]; FaSSIF-v1, pH 6.5, 24 h) of the same compound?
The value was “No form change”.

And the pH ([5]; FaSSIF-v1, pH 6.5, 24 h)?
The pH was “pH: 6.5”.

And the Solubility ([5]; FaSSIF-v1, pH 6.5, 24 h, target 10 mg/5 mL, LOQ: 50 μg/mL)?
The Solubility was 80 µg/mL (≈ 113 µM).

What about the pH ([5]; FeSSIF-v1, pH 5.0, 2 h) of the same compound?
The pH was “pH: 5.0”.

What about the Solubility ([5]; FeSSIF-v1, pH 5.0, 2 h, target 10 mg/5 mL, LOQ: 50 μg/mL) of the same compound?
The Solubility was 170 µg/mL (≈ 239 µM).

And the pH ([5]; FeSSIF-v1, pH 5.0, 24 h)?
The pH was “pH: 5.0”.

What about the Solubility ([5]; FeSSIF-v1, pH 5.0, 24 h, target 10 mg/5 mL, LOQ: 50 μg/mL) of the same compound?
Its Solubility is 210 µg/mL (≈ 295 µM).

What about the pH ([5]; SGF, pH 1.8, 2 h) of the same compound?
The pH was “pH: 2.4”.

What about the Solubility ([5]; SGF, pH 1.8, 2 h, target 10 mg/5 mL, LOQ: 50 μg/mL) of the same compound?
The Solubility was greater than 2000 µg/mL.

And the pH ([5]; SGF, pH 1.8, 24 h)?
The pH was “pH: 2.4”.

What about the Solubility ([5]; SGF, pH 1.8, 24 h, target 10 mg/5 mL, LOQ: 50 μg/mL) of the same compound?
The Solubility was greater than 2000 µg/mL.

What about the pH ([5]; pH 1.0 (0.1N HCl), 2 h) of the same compound?
Its pH is “pH: 1.0”.

And the Solubility ([5]; pH 1.0 (0.1N HCl), 2 h, target 10 mg/5 mL, LOQ: 50 μg/mL)?
The Solubility was greater than 2000 µg/mL.

And the pH ([5]; pH 1.0 (0.1N HCl), 24 h)?
The pH was “pH: 1.0”.

What about the Solubility ([5]; pH 1.0 (0.1N HCl), 24 h, target 10 mg/5 mL, LOQ: 50 μg/mL) of the same compound?
Its Solubility is greater than 2000 µg/mL.

What about the pH ([5]; pH 4.5, 50 mM acetate buffer, 2 h) of the same compound?
The pH was “pH: 4.5”.

What about the Solubility ([5]; pH 4.5, 50 mM acetate buffer, 2 h, target 10 mg/5 mL, LOQ: 50 μg/mL) of the same compound?
Its Solubility is 260 µg/mL (≈ 366 µM).

And the “XRPD of residual solids” value [5, 7]?
Its value is “No form change”.

And the pH [5, 7]?
Its pH is “pH: 4.5”.

And the Solubility ([5]; pH 4.5, 50 mM acetate buffer, 24 h, target 10 mg/5 mL, LOQ: 50 μg/mL)?
The Solubility was 120 µg/mL (≈ 169 µM).

And the “degradation after exposure to light” value (Photostability study)?
Its value is roughly 1%.

And the XRPD ([6]; 0% RH)?
The XRPD was “Pattern J”.

What about the XRPD ([6]; 0% RH hold 6 h) of the same compound?
Its XRPD is “Pattern J”.

And the XRPD ([6]; 0% RH hold 2 days)?
Its XRPD is “Pattern J”.

What about the XRPD ([6]; 20% RH) of the same compound?
Its XRPD is “Pattern A”.

What about the XRPD ([6]; 40% RH (after 90% RH, falling)) of the same compound?
Its XRPD is “Pattern A”.

And the XRPD ([6]; 40% RH (first step))?
Its XRPD is “Pattern A”.

What about the XRPD ([6]; 40% RH (last step, after 0% RH)) of the same compound?
The XRPD was “Pattern A”.

And the XRPD ([6]; 70% RH (after 90% RH))?
The XRPD was “Metastable Pattern K”.

And the XRPD ([6]; 70% RH (humidity rising))?
The XRPD was “Metastable Pattern K”.

And the XRPD ([6]; 90% RH)?
The XRPD was “Metastable Pattern K”.

What about the “water uptake from 40% RH to 95% RH” value ([2]; DVS) of the same compound?
Its value is 6.0% water uptake from.

What about the water uptake ([2]; 95% RH) of the same compound?
Its water uptake is “about 6.0%”.

And the “1st desorp. (%)” value ([2]; DVS, 0% RH)?
Its value is 0.0%.

What about the “2nd sorp. (%)” value ([2]; DVS, 0% RH) of the same compound?
Its value is 0.0%.

And the “1st desorp. (%)” value ([2]; DVS, 10% RH)?
Its value is 1.1%.

What about the “2nd sorp. (%)” value ([2]; DVS, 10% RH) of the same compound?
Its value is 1.0%.

What about the “1st desorp. (%)” value ([2]; DVS, 20% RH) of the same compound?
The value was 1.8%.

And the “2nd sorp. (%)” value ([2]; DVS, 20% RH)?
Its value is 1.5%.

What about the “1st desorp. (%)” value ([2]; DVS, 30% RH) of the same compound?
The value was 4.5%.

And the “2nd sorp. (%)” value ([2]; DVS, 30% RH)?
Its value is 2.1%.

And the “1st desorp. (%)” value ([2]; DVS, 40% RH)?
The value was 6.3%.

What about the “1st sorp. (%)” value ([2]; DVS, 40% RH) of the same compound?
Its value is 4.6%.

What about the “2nd desorp. (%)” value ([2]; DVS, 40% RH) of the same compound?
Its value is 6.6%.

And the “2nd sorp. (%)” value ([2]; DVS, 40% RH)?
The value was 3.6%.

And the “1st desorp. (%)” value ([2]; DVS, 50% RH)?
The value was 8.5%.

What about the “1st sorp. (%)” value ([2]; DVS, 50% RH) of the same compound?
Its value is 5.2%.

And the “2nd desorp. (%)” value ([2]; DVS, 50% RH)?
The value was 8.5%.

And the “2nd sorp. (%)” value ([2]; DVS, 50% RH)?
Its value is 5.8%.

What about the “1st desorp. (%)” value ([2]; DVS, 60% RH) of the same compound?
The value was 9.4%.

And the “1st sorp. (%)” value ([2]; DVS, 60% RH)?
Its value is 6.9%.

And the “2nd desorp. (%)” value ([2]; DVS, 60% RH)?
The value was 9.4%.

What about the “2nd sorp. (%)” value ([2]; DVS, 60% RH) of the same compound?
Its value is 7.7%.

What about the “1st desorp. (%)” value ([2]; DVS, 70% RH) of the same compound?
Its value is 9.7%.

What about the “1st sorp. (%)” value ([2]; DVS, 70% RH) of the same compound?
Its value is 9.1%.

And the “2nd desorp. (%)” value ([2]; DVS, 70% RH)?
The value was 9.7%.

And the “2nd sorp. (%)” value ([2]; DVS, 70% RH)?
Its value is 9.3%.

What about the “1st desorp. (%)” value ([2]; DVS, 80% RH) of the same compound?
Its value is 1.0%.

What about the “1st sorp. (%)” value ([2]; DVS, 80% RH) of the same compound?
Its value is 9.8%.

And the “2nd desorp. (%)” value ([2]; DVS, 80% RH)?
Its value is 10.0%.

And the “2nd sorp. (%)” value ([2]; DVS, 80% RH)?
Its value is 9.8%.

What about the “1st desorp. (%)” value ([2]; DVS, 90% RH) of the same compound?
The value was 10.3%.

What about the “1st sorp. (%)” value ([2]; DVS, 90% RH) of the same compound?
Its value is 10.3%.

And the “2nd desorp. (%)” value ([2]; DVS, 90% RH)?
The value was 10.3%.

And the “2nd sorp. (%)” value ([2]; DVS, 90% RH)?
Its value is 10.2%.

What about the “1st desorp. (%)” value ([2]; DVS, 95% RH) of the same compound?
Its value is 10.6%.

What about the “1st sorp. (%)” value ([2]; DVS, 95% RH) of the same compound?
Its value is 10.6%.

What about the “2nd desorp. (%)” value ([2]; DVS, 95% RH) of the same compound?
The value was 10.5%.

And the “2nd sorp. (%)” value ([2]; DVS, 95% RH)?
Its value is 10.5%.

Reference: patent US20240245677A1, “SELECTED COMPOUNDS FOR TARGETED DEGRADATION OF BRD9” (C4 THERAPEUTICS, INC., priority 2021, published 2024)
